This is an account of results in article PMC3813752 (PLoS ONE, 2013).

The structures appear in SMILES notation. Like-named read-outs stand apart in the source and are kept apart here.

Assay [1] has as its target T1, human GPR18 (Homo sapiens, UniProt Q14330).
T1 sequence (Q14330 1-331): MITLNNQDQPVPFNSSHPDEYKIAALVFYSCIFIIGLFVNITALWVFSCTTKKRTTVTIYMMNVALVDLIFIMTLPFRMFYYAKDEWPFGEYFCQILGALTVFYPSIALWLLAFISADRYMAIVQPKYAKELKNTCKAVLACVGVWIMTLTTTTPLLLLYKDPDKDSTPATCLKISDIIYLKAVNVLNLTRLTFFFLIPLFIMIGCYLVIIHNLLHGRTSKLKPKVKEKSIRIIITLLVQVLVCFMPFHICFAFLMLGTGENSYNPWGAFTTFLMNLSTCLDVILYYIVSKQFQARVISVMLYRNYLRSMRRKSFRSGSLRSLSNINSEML
To be noted: test compound 10 µM, related to effect of Δ9-THC 10 µM = 100%.

Assay [2] addresses T1, human GPR18. Put plainly: cell-based. To be noted: for inhibition at 10 µM: CHO, read-out: % inhibition of Δ9-THC (10 µM)-induced β-arrestin recruitment at GPR18, test compound at 10 µM; for IC50: GPR18 IC50, β-arrestin recruitment, antagonist mode vs. Δ9-THC (10 µM). Background: Activated receptors often draw arrestin, which recruitment assays turn into a signal.
A further assay concerns the target human GPR55 (Homo sapiens, UniProt Q9Y2T6). Nature of the assay: β-arrestin recruitment assay (PathHunter), CHO cells expressing GPR55. To be noted: for inhibition at 10 µM: CHO; for IC50: GPR55 IC50, β-arrestin recruitment, antagonist mode vs. LPI (1 µM); for agonist effect on β-arrestin recruitment at GPR55: test compound 10 µM, related to effect of LPI 1 µM = 100%.

A further assay addresses human CB2 receptor (Homo sapiens, UniProt P34972). Put plainly: Radioligand binding (heterologous competition) vs. [3H]CP55,940 at CB2. To be noted: for inhibition at 10 µM: read-out: % inhibition of radioligand binding at CB2.
In a further assay the target is human CB1 receptor (Homo sapiens, UniProt P21554). Put plainly: biochemical. The assay is classed as binding. To be noted: for inhibition at 10 µM: vs. [3H]CP55,940, read-out: % inhibition of radioligand binding at CB1; for Ki: membranes of CHO cells expressing human CB1, three independent experiments in duplicates, read-out: Ki CB1, heterologous competition vs. [3H]CP55,940.

The mark [3] stands for this setting: Ki CB2, heterologous competition vs. [3H]CP55,940, membranes of CHO cells expressing human CB2, three independent experiments in duplicates.
The mark [4] stands for this setting: membranes of CHO cells expressing human CB2, three independent experiments in duplicates, read-out: Ki CB2, heterologous competition vs. [3H]CP55,940.
Setting [5] is: read-out: % inhibition of LPI (1 µM)-induced β-arrestin recruitment at GPR55, test compound at 10 µM.

Chain of human CB2 receptor (P34972 whole entry): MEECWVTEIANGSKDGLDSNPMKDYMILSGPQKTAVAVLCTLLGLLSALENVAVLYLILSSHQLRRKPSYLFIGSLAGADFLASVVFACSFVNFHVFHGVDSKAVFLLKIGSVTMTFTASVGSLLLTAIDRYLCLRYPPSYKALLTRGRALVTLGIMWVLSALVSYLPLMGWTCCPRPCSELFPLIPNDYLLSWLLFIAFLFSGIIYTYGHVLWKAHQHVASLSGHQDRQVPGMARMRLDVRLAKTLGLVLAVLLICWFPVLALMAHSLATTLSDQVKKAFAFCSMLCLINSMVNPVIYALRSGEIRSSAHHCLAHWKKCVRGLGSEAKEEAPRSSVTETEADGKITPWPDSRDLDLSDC
Chain of human GPR55 (Q9Y2T6 whole entry): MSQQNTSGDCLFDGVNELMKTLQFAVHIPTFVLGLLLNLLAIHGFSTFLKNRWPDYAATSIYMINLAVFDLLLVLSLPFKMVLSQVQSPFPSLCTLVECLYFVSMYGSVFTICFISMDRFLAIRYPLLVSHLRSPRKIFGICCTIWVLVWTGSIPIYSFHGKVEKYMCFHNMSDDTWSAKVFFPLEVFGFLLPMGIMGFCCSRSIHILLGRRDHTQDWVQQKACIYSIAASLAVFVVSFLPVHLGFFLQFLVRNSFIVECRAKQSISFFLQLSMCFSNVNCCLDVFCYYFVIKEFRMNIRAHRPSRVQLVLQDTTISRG
Chain of human CB1 receptor (P21554 whole entry): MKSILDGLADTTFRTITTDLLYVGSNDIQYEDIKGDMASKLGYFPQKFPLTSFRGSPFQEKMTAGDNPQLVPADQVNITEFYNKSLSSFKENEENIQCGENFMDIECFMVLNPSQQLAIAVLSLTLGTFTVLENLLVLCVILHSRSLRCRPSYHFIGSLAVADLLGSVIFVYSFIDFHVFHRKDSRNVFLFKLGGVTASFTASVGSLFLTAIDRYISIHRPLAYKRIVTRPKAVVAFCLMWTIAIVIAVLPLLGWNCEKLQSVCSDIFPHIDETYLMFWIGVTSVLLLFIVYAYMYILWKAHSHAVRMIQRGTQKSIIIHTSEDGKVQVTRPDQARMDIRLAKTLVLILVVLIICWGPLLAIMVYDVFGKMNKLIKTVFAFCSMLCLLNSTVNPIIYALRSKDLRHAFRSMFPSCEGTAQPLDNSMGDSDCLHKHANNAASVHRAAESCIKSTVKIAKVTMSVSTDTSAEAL

By EC50 is commonly meant the concentration at which the effect is half-maximal. Lower therefore signals a more potent agent. The inhibition is the drop in the measured response relative to a control, in per cent. By IC50 is commonly meant the concentration at which inhibition is half-maximal. `C=CCc1ccc(O)c(-c2ccc(O)c(CC=C)c2)c1` [Compound 10, honokiol, reference compound]: the “agonist effect on β-arrestin recruitment at GPR18” value (“agonist effect … at GPR18” below) on human GPR18 [1] is listed as 0%. For the same compound, on human GPR18 [2], the EC50 was greater than 10 µM, the inhibition at 10 µM came out at 45% and the IC50 was roughly 10 µM. Further, at human GPR55, the EC50 was greater than 10 µM, the IC50 was roughly 10 µM and the “agonist effect on β-arrestin recruitment at GPR55” value (“agonist effect … at GPR55” for short) is on record as 27%. The inhibition at 10 µM at human GPR55 (read-out: % inhibition of LPI (1 µM)-induced β-arrestin recruitment at GPR55) was determined as 42%.

For orientation: Ki means a dissociation constant, usually derived from enzyme kinetics or from competition with a known ligand. Consider `Oc1ccccc1-c1ccccc1O` [Compound 40, 2-(2-hydroxyphenyl)phenol], for which the Ki on human CB2 receptor (setting [3]) and on human CB1 receptor was greater than 1000 nM throughout. Further, the inhibition at 10 µM at human CB2 receptor stood at 0%; at human CB1 receptor it was 11%.

For `Cc1ccc(O)c(-c2cc(C)ccc2O)c1` [Compound 41], on human GPR18 [1], the “agonist effect … at GPR18” value was 20%. The Ki was greater than 10 nM at human CB2 receptor (setting [3]), greater than 1000 nM at human CB2 receptor (setting [4]) and greater than 1000 nM at human CB1 receptor. The inhibition at 10 µM on human CB2 receptor (at 10 µM, vs. [3H]CP55,940) amounted to 30%; at human CB1 receptor, 23%; on human GPR18 [2], 0%; on human GPR55 (setting [5]), 0%. For the same compound, the EC50 at human GPR18 [2] and at human GPR55 was greater than 10 µM in each case. The 50% inhibitory concentration (IC50) against human GPR18 [2] and on human GPR55 was greater than 10 µM each time. On human GPR55, the “agonist effect … at GPR55” value was found to be 30%.

Take `CCc1ccc(O)c(-c2cc(CC)ccc2O)c1` [Compound 42]: the “agonist effect … at GPR18” value on human GPR18 [1] was 6%. Further, the Ki at human CB2 receptor (setting [4]) turned out to be 2870 ± 770 nM; at human CB1 receptor, 2130 ± 840 nM. Moreover, the EC50 on human GPR18 [2] and on human GPR55 was greater than 10 µM each time. For the same compound, the inhibition at 10 µM was determined as 12% on human GPR18 [2] and 0% at human GPR55 (setting [5]). In addition, the IC50 on human GPR18 [2] and against human GPR55 was greater than 10 µM throughout. In addition, on human GPR55, the “agonist effect … at GPR55” value is listed as 23%.

For the compound `CCCCCCc1ccc(O)c(-c2cc(CCCCCC)ccc2O)c1` [Compound 45], the “agonist effect … at GPR18” value on human GPR18 [1] is reported as 0%. The Ki on human CB2 receptor (setting [4]) worked out at 1830 ± 190 nM. In addition, at human CB1 receptor, the Ki came to 4640 ± 580 nM. Further, on human GPR18 [2], the EC50 is greater than 10 µM, the inhibition at 10 µM is 127% and 11.7 ± 2.8 µM corresponded to half-maximal inhibition (IC50). For the same compound, on human GPR55, the EC50 is greater than 10 µM, the IC50 is greater than 10 µM and the “agonist effect … at GPR55” value was 0%. For the same compound, the inhibition at 10 µM on human GPR55 (setting [5]) amounted to 0%.

As to `CCCc1ccc(O)c(-c2ccccc2O)c1` [Compound 46], the “agonist effect … at GPR18” value at human GPR18 [1] worked out at 0%. Also, the inhibition at 10 µM is 49% at human CB2 receptor (at 10 µM, vs. [3H]CP55,940); 45% at human CB1 receptor; 0% at human GPR18 [2]; 37% at human GPR55 (setting [5]). Besides, the Ki on human CB2 receptor (vs. [3H]CP55,940, read-out: Ki CB2) was roughly 10000 nM. For the same compound, the EC50 on human GPR18 [2] and on human GPR55 was greater than 10 µM in each case. Moreover, the IC50 against human GPR18 [2] and at human GPR55 was greater than 10 µM throughout. Further, the “agonist effect … at GPR55” value at human GPR55 worked out at 25%.

As for `CCCCc1ccc(O)c(-c2ccccc2O)c1` [Compound 47], the “agonist effect … at GPR18” value at human GPR18 [1] is given as 0%. Besides, the Ki on human CB2 receptor (setting [4]) came to 2030 ± 880 nM. On human CB1 receptor, the inhibition at 10 µM is 40% and the Ki was roughly 1000 nM. For the same compound, on human GPR18 [2], the EC50 is greater than 10 µM, the inhibition at 10 µM came to 24% and the IC50 is greater than 10 µM. Further, at human GPR55, the EC50 was greater than 10 µM, the IC50 was greater than 10 µM and the “agonist effect … at GPR55” value is recorded as 2%. On human GPR55 (setting [5]), the inhibition at 10 µM came to 35%.

For the compound `CCCCCc1ccc(O)c(-c2ccccc2O)c1` [Compound 48], on human GPR18 [1], the “agonist effect … at GPR18” value stood at 0%. On human CB2 receptor (setting [4]), the Ki worked out at 1160 ± 290 nM. In addition, on human CB1 receptor, the Ki was found to be 6590 ± 2560 nM. Moreover, at human GPR18 [2], the EC50 is greater than 10 µM, the inhibition at 10 µM is 18% and the IC50 was greater than 10 µM. Moreover, on human GPR55, the EC50 was roughly 10 µM, the IC50 was greater than 10 µM and the “agonist effect … at GPR55” value was 42%. For the same compound, the inhibition at 10 µM on human GPR55 (setting [5]) stood at 25%.
